Measured values as given in US10519134B2, “Pyrazole compounds and methods of making and using same” (Lundbeck La Jolla Research Center, Inc., priority 2015, dated 2019).

Key:
FAAH = molecular target: T1, FAAH (Mus musculus, UniProt O08914); experiment: In vitro competitive activity-based protein profiling (mouse), FAAH gel band; format: biochemical; conditions: for IC50: mouse; for inhibition at 1 µM: read-out: FAAH % inh. 1 μM
T1 construct: Proteomes (mouse brain membrane fraction or cell lysates); from tissue; host or cells: mouse brain membrane fraction (or cell lysates)
T1 sequence (O08914 1-579): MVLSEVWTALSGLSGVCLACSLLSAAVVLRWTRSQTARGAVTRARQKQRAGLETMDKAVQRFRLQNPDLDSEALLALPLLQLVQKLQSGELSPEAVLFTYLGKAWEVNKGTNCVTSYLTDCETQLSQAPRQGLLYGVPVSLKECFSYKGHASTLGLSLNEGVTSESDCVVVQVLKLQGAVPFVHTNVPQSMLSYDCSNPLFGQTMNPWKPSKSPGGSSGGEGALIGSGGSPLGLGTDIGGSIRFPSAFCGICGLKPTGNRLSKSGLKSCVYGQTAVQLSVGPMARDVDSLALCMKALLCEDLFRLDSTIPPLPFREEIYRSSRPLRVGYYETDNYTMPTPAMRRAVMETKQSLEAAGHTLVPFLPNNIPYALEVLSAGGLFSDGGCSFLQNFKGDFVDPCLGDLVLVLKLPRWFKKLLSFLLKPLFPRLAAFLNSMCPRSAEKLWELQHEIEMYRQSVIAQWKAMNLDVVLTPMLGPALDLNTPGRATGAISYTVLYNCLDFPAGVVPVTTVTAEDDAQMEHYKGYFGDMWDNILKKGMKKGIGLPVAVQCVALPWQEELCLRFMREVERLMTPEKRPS
Summary of the method: (§1)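 Mouse brain membrane proteome or cell lysate (1.0 mg/mL total protein) was preincubated with varying inhibitor concentrations for 30 min at 37 °C, then labelled for 30 min at 37 °C with FP-Rh or HT-01 (50 μM stock in DMSO). Activity was read as fluorescent band intensity after SDS-PAGE.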

MAGL [1] = molecular target: T2, MAGL (Mus musculus, UniProt O35678); experiment: In vitro competitive activity-based protein profiling (mouse), MAGL gel band; format: biochemical; conditions: for IC50: mouse; for inhibition at 1 µM: read-out: MAGL % inh. 1 μM
T2 construct: Proteomes (mouse brain membrane fraction or cell lysates); from tissue; host or cells: mouse brain membrane fraction (or cell lysates)
T2 sequence (O35678 1-303): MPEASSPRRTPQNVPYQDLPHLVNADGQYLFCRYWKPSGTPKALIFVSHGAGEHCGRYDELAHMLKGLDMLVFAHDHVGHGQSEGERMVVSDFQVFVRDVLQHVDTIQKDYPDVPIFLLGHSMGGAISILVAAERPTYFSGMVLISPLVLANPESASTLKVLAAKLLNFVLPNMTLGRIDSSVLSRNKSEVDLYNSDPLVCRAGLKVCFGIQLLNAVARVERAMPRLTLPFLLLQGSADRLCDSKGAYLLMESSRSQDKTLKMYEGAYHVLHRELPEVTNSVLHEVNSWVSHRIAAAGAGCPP
Summary of the method: as §1

MAGL [2] = molecular target: T2, MAGL; experiment: Mouse brain proteomes from inhibitor treated mice (oral gavage, sacrificed 4 h after administration); format: in vivo; conditions: read-out: MAGL % inh. 5 mg/kg
Method: Compounds are tested to assess their MAGL and other serine hydrolase activity using the following in vitro and in vivo assays.
Preparation of Mouse Brain Proteomes from Inhibitor Treated Mice.
Inhibitors were administered to wild-type C57Bl/6J by oral gavage in a vehicle of polyethylene glycol. Each animal was sacrificed 4 h following administration and brain proteomes were prepared and analyzed according to previously established methods (See Niphakis, M. J., et al. (2011) ACS Chem. Neurosci. and Long, J. Z., et al. Nat. Chem. Biol. 5:37-44)

In the case of `CC(=O)Nc1ccn(C(=O)N2CCC3(CCCN3Cc3ccc(C(F)(F)F)cc3N3CCC4(CC3)CCN(S(C)(=O)=O)C4)CC2)n1` [Example 26, N-(1-(1-(2-(2-(methylsulfonyl)-2,8-diazaspiro[4.5]decan-8-yl)-4-(trifluoromethyl)benzyl)-1,8-diazaspiro[4.5]decane-8-carbonyl)-1H-pyrazol-3-yl)acetamide], the IC50 (FAAH) is reported as 1000 to 10000 nM, the inhibition at 1 µM (FAAH) is reported as 0 to 25% and the IC50 (MAGL [1]) is reported as ≤ 100 nM. The inhibition at 1 µM (MAGL [1]) was ≥ 75% and the inhibition at 5 mg/kg (MAGL [2]) was 0 to 25%.
With `CC(=O)Nc1ccn(C(=O)N2CCN(Cc3ccc(Cl)cc3N3CC4CCC(C3)O4)CC2)n1` [Example 51, N-(1-(4-(2-(8-oxa-3-azabicyclo[3.2.1]octan-3-yl)-4-chlorobenzyl)piperazine-1-carbonyl)-1H-pyrazol-3-yl)acetamide] the IC50 (FAAH) was 1000 to 10000 nM, the inhibition at 1 µM (FAAH) was 0 to 25% and the IC50 (MAGL [1]) was ≤ 100 nM. For the same compound, the inhibition at 1 µM (MAGL [1]) was ≥ 75% and the inhibition at 5 mg/kg (MAGL [2]) was 25 to 50%.
`CC(=O)Nc1ccn(C(=O)N2CCN(Cc3ccc(Cl)cc3N3CCN(C4CC4)CC3)CC2)n1` [Example 58, N-(1-(4-(4-chloro-2-(4-cyclopropylpiperazin-1-yl)benzyl)piperazine-1-carbonyl)-1H-pyrazol-3-yl)acetamide] was tested, and the IC50 (FAAH) was 1000 to 10000 nM, the inhibition at 1 µM (FAAH) was 0 to 25% and the IC50 (MAGL [1]) was ≤ 100 nM. For the same compound, the inhibition at 1 µM (MAGL [1]) was ≥ 75% and the inhibition at 5 mg/kg (MAGL [2]) was ≥ 75%.
In the case of `CC(=O)Nc1ccn(C(=O)N2CCC3(CCCN3Cc3ccc(C(F)(F)F)cc3OC3CCN(C4CC4)CC3)CC2)n1` [Example 81, N-(1-(1-(2-(1-cyclopropylpiperidin-4-yloxy)-4-(trifluoromethyl)benzyl)-1,8-diazaspiro[4.5]decane-8-carbonyl)-1H-pyrazol-3-yl)acetamide], the IC50 (FAAH) is reported as 1000 to 10000 nM, the inhibition at 1 µM (FAAH) is reported as 0 to 25% and the IC50 (MAGL [1]) is reported as ≤ 100 nM. For the same compound, the inhibition at 1 µM (MAGL [1]) was ≥ 75% and the inhibition at 5 mg/kg (MAGL [2]) was 0 to 25%.
`CC(=O)Nc1ccn(C(=O)N2CCN(Cc3cccc(C(F)(F)F)c3-c3nnn[nH]3)CC2)n1` [Example 223, N-(1-(4-(2-(1H-tetrazol-5-yl)-3-(trifluoromethyl)benzyl)piperazine-1-carbonyl)-1H-pyrazol-3-yl)acetamide] was tested, and the IC50 (FAAH) was 1000 to 10000 nM, the inhibition at 1 µM (FAAH) was 0 to 25% and the IC50 (MAGL [1]) was 1000 to 10000 nM. The inhibition at 1 µM (MAGL [1]) was ≥ 75% and the inhibition at 5 mg/kg (MAGL [2]) was 0 to 25%.
In the case of `CC(=O)Nc1ccn(C(=O)N2CCC3(CCCN3Cc3ccc(Cl)cc3N3CCCC3)CC2)n1` [Example 14, N-(1-(1-(4-chloro-2-(pyrrolidin-1-yl)benzyl)-1,8-diazaspiro[4.5]decane-8-carbonyl)-1H-pyrazol-3-yl)acetamide], the IC50 (FAAH) is reported as 1000 to 10000 nM, the inhibition at 1 µM (FAAH) is reported as 0 to 25% and the IC50 (MAGL [1]) is reported as ≤ 100 nM. For the same compound, the inhibition at 1 µM (MAGL [1]) was ≥ 75% and the inhibition at 5 mg/kg (MAGL [2]) was 25 to 50%.
With `CC(=O)Nc1ccn(C(=O)N2CCC3(CCCN3Cc3ccc(C(F)(F)F)cc3N3CCC(F)CC3)CC2)n1` [Example 12, N-(1-(1-(2-(4-fluoropiperidin-1-yl)-4-(trifluoromethyl)benzyl)-1,8-diazaspiro[4.5]decane-8-carbonyl)-1H-pyrazol-3-yl)acetamide] the IC50 (FAAH) was 1000 to 10000 nM, the inhibition at 1 µM (FAAH) was 0 to 25% and the IC50 (MAGL [1]) was ≤ 100 nM. The inhibition at 1 µM (MAGL [1]) was ≥ 75% and the inhibition at 5 mg/kg (MAGL [2]) was 0 to 25%.
`CCN1CCN(c2cc(C(F)(F)F)ccc2CN2CCN(C(=O)n3ccc(NC(C)=O)n3)CC2)CC1` [Example 48, N-(1-(4-(2-(4-ethylpiperazin-1-yl)-4-(trifluoromethyl)benzyl)piperazine-1-carbonyl)-1H-pyrazol-3-yl)acetamide] was tested, and the IC50 (FAAH) was 1000 to 10000 nM, the inhibition at 1 µM (FAAH) was 0 to 25% and the IC50 (MAGL [1]) was ≤ 100 nM. For the same compound, the inhibition at 1 µM (MAGL [1]) was ≥ 75% and the inhibition at 5 mg/kg (MAGL [2]) was 0 to 25%.
With `CC(=O)Nc1ccn(C(=O)N2CCC3(CCCN3Cc3ccc(N4CCCC4)c(C(F)(F)F)c3)CC2)n1` [Example 102, N-(1-(1-(4-(pyrrolidin-1-yl)-3-(trifluoromethyl)benzyl)-1,8-diazaspiro[4.5]decane-8-carbonyl)-1H-pyrazol-3-yl)acetamide] the IC50 (FAAH) was 1000 to 10000 nM, the inhibition at 1 µM (FAAH) was 0 to 25% and the IC50 (MAGL [1]) was ≤ 100 nM. For the same compound, the inhibition at 1 µM (MAGL [1]) was ≥ 75% and the inhibition at 5 mg/kg (MAGL [2]) was 0 to 25%.
For `CC(=O)Nc1ccn(C(=O)N2CCN(Cc3ccc(Cl)cc3N3CCCCC3)CC2)n1` [Example 50, N-(1-(4-(4-chloro-2-(piperidin-1-yl)benzyl)piperazine-1-carbonyl)-1H-pyrazol-3-yl)acetamide], the IC50 (FAAH) was 1000 to 10000 nM, the inhibition at 1 µM (FAAH) was 0 to 25% and the IC50 (MAGL [1]) was ≤ 100 nM. For the same compound, the inhibition at 1 µM (MAGL [1]) was ≥ 75% and the inhibition at 5 mg/kg (MAGL [2]) was ≥ 75%.
In the case of `CC(=O)Nc1ccn(C(=O)N2CCC3(CCCN3Cc3ccc(C(F)(F)F)c(N4CCCC4)c3)CC2)n1` [Example 106, N-(1-(1-(3-(pyrrolidin-1-yl)-4-(trifluoromethyl)benzyl)-1,8-diazaspiro[4.5]decane-8-carbonyl)-1H-pyrazol-3-yl)acetamide], the IC50 (FAAH) is reported as 1000 to 10000 nM, the inhibition at 1 µM (FAAH) is reported as 0 to 25% and the IC50 (MAGL [1]) is reported as ≤ 100 nM. For the same compound, the inhibition at 1 µM (MAGL [1]) was ≥ 75% and the inhibition at 5 mg/kg (MAGL [2]) was 25 to 50%.
In the case of `CC(=O)Nc1ccn(C(=O)N2CCC3(CCCN3Cc3ccc(Cl)cc3N3CCC4(CC3)CCN(S(C)(=O)=O)C4)CC2)n1` [Example 37, N-(1-(1-(4-chloro-2-(2-(methylsulfonyl)-2,8-diazaspiro[4.5]decan-8-yl)benzyl)-1,8-diazaspiro[4.5]decane-8-carbonyl)-1H-pyrazol-3-yl)acetamide], the IC50 (FAAH) is reported as 1000 to 10000 nM, the inhibition at 1 µM (FAAH) is reported as 0 to 25% and the IC50 (MAGL [1]) is reported as ≤ 100 nM. The inhibition at 1 µM (MAGL [1]) was ≥ 75% and the inhibition at 5 mg/kg (MAGL [2]) was 0 to 25%.
`CC(=O)Nc1ccn(C(=O)N2CCN(Cc3ccc(C(F)(F)F)cc3N3CCC(F)CC3)CC2)n1` [Example 4, N-(1-(4-(2-(4-fluoropiperidin-1-yl)-4-(trifluoromethyl)benzyl)piperazine-1-carbonyl)-1H-pyrazol-3-yl)acetamide] was tested, and the IC50 (FAAH) was 1000 to 10000 nM, the inhibition at 1 µM (FAAH) was 0 to 25% and the IC50 (MAGL [1]) was ≤ 100 nM. For the same compound, the inhibition at 1 µM (MAGL [1]) was ≥ 75% and the inhibition at 5 mg/kg (MAGL [2]) was ≥ 75%.
`Cc1ccc(CN2CCN(C(=O)n3ccc(NS(C)(=O)=O)n3)CC2)c(N2CC3CCC(C2)O3)c1` [Example 146, N-(1-(4-(2-(8-oxa-3-azabicyclo[3.2.1]octan-3-yl)-4-methylbenzyl)piperazine-1-carbonyl)-1H-pyrazol-3-yl) methanesulfonamide] was tested, and the IC50 (FAAH) was 1000 to 10000 nM, the inhibition at 1 µM (FAAH) was 0 to 25% and the IC50 (MAGL [1]) was ≤ 100 nM. The inhibition at 1 µM (MAGL [1]) was ≥ 75% and the inhibition at 5 mg/kg (MAGL [2]) was 25 to 50%.
In the case of `CC(=O)Nc1ccn(C(=O)N2CCC3(CCCN3Cc3ccc(C(F)(F)F)cc3N3CCC(F)(F)CC3)CC2)n1` [Example 29, N-(1-(1-(2-(4,4-difluoropiperidin-1-yl)-4-(trifluoromethyl)benzyl)-1,8-diazaspiro[4.5]decane-8-carbonyl)-1H-pyrazol-3-yl)acetamide], the IC50 (FAAH) is reported as 1000 to 10000 nM, the inhibition at 1 µM (FAAH) is reported as 25 to 50% and the IC50 (MAGL [1]) is reported as ≤ 100 nM. For the same compound, the inhibition at 1 µM (MAGL [1]) was ≥ 75% and the inhibition at 5 mg/kg (MAGL [2]) was 0 to 25%.
In the case of `CC(=O)Nc1ccn(C(=O)N2CCN(Cc3ccc(C(F)(F)F)cc3N3CC4CCC(C3)O4)CC2)n1` [Example 40, N-(1-(4-(2-(8-oxa-3-azabicyclo[3.2.1]octan-3-yl)-4-(trifluoromethyl)benzyl)piperazine-1-carbonyl)-1H-pyrazol-3-yl)acetamide], the IC50 (FAAH) is reported as 1000 to 10000 nM, the inhibition at 1 µM (FAAH) is reported as 0 to 25% and the IC50 (MAGL [1]) is reported as ≤ 100 nM. The inhibition at 1 µM (MAGL [1]) was ≥ 75% and the inhibition at 5 mg/kg (MAGL [2]) was 25 to 50%.
